In publication PMC8202330, “Phosphorylation of the LIR Domain of SCOC Modulates ATG8 Binding Affinity and Specificity” (Journal of Molecular Biology, 2021):
Where two headings read alike, the source gives them in different places.

How the values were obtained:
Assay type in all cases: binding
LC3A = molecular target: T1, LC3A (Homo sapiens, UniProt Q9H492); assay: Bio-layer interferometry (BLI) affinity of SCOC LIR peptides for LC3A
T1 construct: GST (followed by 3C protease cleavage site) (N); made in house
Experimental: (§1) Bio-layer interferometry (BLI) is an optical analytical technique for measuring kinetics of interactions in real-time. The biosensor tip surface immobilized with a ligand is incubated with an analyte in solution, resulting in an increase in optical thickness at the biosensor tip and a wavelength shift, which is a direct measure of the change in thickness. Bio-layer interferometry analyses of ATG8s binding to immobilized biotinylated LIR peptides were performed using an Octet Red 96 (ForteBio). […] Ligands-loaded SA biosensors were then incubated with different concentrations of ATG8. All binding experiments were performed in solid-black 96-well plates containing 200 μl of solution (25 mM Tris pH 7.5, 150 mM NaCl, 0.5 mM TCEP, 0.1% Tween20, 1 mg/ml BSA) in each well at 25 °C with an agitation speed of 1000 rpm. Each measurement was repeated 2 to 3 times. Dissociation constants for LIR-ATG8 interactions were determined from plotting the increase in BLI response as a function of the protein concentration and fitting using non-linear regression of ForteBio 7.1 data analysis and GraphPad Prism 7 softwares.
(§2) The following peptides were synthesized using FMOC solid phase peptide chemistry by the Francis CRICK Institute peptide chemistry science technology platform: […]

LC3B = molecular target: T2, LC3B (Homo sapiens, UniProt Q9GZQ8); assay: Bio-layer interferometry (BLI) affinity of SCOC LIR peptides for LC3B
T2 construct: GST (followed by 3C protease cleavage site) (N); made in house
Experimental: as §1, §2

GABARAPL2 = molecular target: T3, GABARAPL2 (Homo sapiens, UniProt P60520); assay: Bio-layer interferometry (BLI) affinity of SCOC LIR peptides for GABARAPL2
T3 construct: GST (followed by 3C protease cleavage site) (N); made in house
Experimental: as §1, §2

GABARAPL1 = molecular target: T4, GABARAPL1 (Homo sapiens, UniProt Q9H0R8); assay: Bio-layer interferometry (BLI) affinity of SCOC LIR peptides for GABARAPL1
T4 construct: GST-GABARAPL1 full-length (pAL); GST (followed by 3C protease cleavage site) (N); made in house
Experimental: as §1, §2

LC3C = molecular target: T5, LC3C (Homo sapiens, UniProt Q9BXW4); assay: Bio-layer interferometry (BLI) affinity of SCOC LIR peptides for LC3C
T5 construct: GST (followed by 3C protease cleavage site) (N); made in house
Experimental: as §1, §2

GABARAP = molecular target: T6, GABARAP (Homo sapiens, UniProt O95166); assay: Bio-layer interferometry (BLI) affinity of SCOC LIR peptides for GABARAP
T6 construct: fused with a Gly-Ser linker to full-length GABARAP (GST-GABARAP (pAL)); GST (followed by 3C protease cleavage site) (N); made in house
Experimental: as §1, §2

[1] = BLI, wild-type and phosphorylated SCOC LIR peptides, Tris pH 7.5, 25 °C, average ± standard error of fit, n = 2–3, Figure 4B, read-out: Kd LC3A
[2] = BLI, wild-type and phosphorylated SCOC LIR peptides, Tris pH 7.5, 25 °C, average ± standard error of fit, n = 2–3, Figure 4B, read-out: Kd LC3B
[3] = BLI, wild-type and phosphorylated SCOC LIR peptides, Tris pH 7.5, 25 °C, average ± standard error of fit, n = 2–3, Figure 4B, read-out: Kd GAB-L2
[4] = BLI, wild-type and phosphorylated SCOC LIR peptides, Tris pH 7.5, 25 °C, average ± standard error of fit, n = 2–3, Figure 4B, read-out: Kd GAB-L1
[5] = BLI, wild-type and phosphorylated SCOC LIR peptides, Tris pH 7.5, 25 °C, average ± standard error of fit, n = 2–3, Figure 4B, read-out: Kd LC3C
[6] = BLI, wild-type and phosphorylated SCOC LIR peptides, Tris pH 7.5, 25 °C, average ± standard error of fit, n = 2–3, Figure 4B, read-out: Kd GAB

T3 sequence (P60520 whole entry): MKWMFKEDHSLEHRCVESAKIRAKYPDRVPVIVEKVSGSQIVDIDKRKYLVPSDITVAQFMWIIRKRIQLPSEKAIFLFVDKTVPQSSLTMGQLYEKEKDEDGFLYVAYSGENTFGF
T4 sequence (Q9H0R8 whole entry): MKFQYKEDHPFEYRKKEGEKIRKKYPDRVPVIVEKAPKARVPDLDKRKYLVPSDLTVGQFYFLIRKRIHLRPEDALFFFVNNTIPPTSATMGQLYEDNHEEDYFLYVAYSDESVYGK
T6 sequence (O95166 whole entry, the tested form may be a part): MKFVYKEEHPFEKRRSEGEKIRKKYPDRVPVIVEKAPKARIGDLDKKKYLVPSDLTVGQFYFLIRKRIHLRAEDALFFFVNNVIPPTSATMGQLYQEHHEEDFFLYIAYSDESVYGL
T5 sequence (Q9BXW4 whole entry): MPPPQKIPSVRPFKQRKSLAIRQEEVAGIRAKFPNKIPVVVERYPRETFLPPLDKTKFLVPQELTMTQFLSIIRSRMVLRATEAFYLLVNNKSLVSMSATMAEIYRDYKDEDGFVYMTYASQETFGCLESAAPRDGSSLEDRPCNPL

`CC[C@H](C)[C@H](NC(=O)[C@H](CC(=O)O)NC(=O)[C@H](CC(=O)O)NC(=O)[C@H](C)NC(=O)[C@H](CC(C)C)NC(=O)[C@H](CO)NC(=O)[C@@H](NC(=O)[C@H](CC(N)=O)NC(=O)[C@@H](NC(=O)[C@H](Cc1ccccc1)NC(=O)[C@@H](NC(=O)[C@H](COP(=O)(O)O)NC(=O)[C@H](CC(=O)O)NC(=O)[C@H](CCC(=O)O)NC(=O)[C@H](CCC(=O)O)NC(=O)[C@H](CCC(=O)O)NC(=O)[C@H](CCC(=O)O)NC(=O)[C@@H](N)CCCCN)[C@@H](C)O)[C@@H](C)OP(=O)(O)O)[C@@H](C)CC)C(=O)N[C@@H](CC(=O)O)C(=O)N[C@@H](Cc1c[nH]cn1)C(N)=O` [pS12, pT15] showed a Kd (LC3A) of 0.7 ± 0.08 µM, a Kd (LC3B) of 4.8 ± 0.6 µM and a Kd (GABARAPL2) of 8.3 ± 0.4 µM. It also gave a Kd (GABARAPL1) of 0.37 ± 0.04 µM, a Kd (LC3C) of 0.41 ± 0.04 µM and a Kd (GABARAP) of 1 ± 0.1 µM.

`CC[C@H](C)[C@H](NC(=O)[C@H](CC(=O)O)NC(=O)[C@H](CC(=O)O)NC(=O)[C@H](C)NC(=O)[C@H](CC(C)C)NC(=O)[C@H](CO)NC(=O)[C@@H](NC(=O)[C@H](CC(N)=O)NC(=O)[C@@H](NC(=O)[C@H](Cc1ccccc1)NC(=O)[C@@H](NC(=O)[C@H](COP(=O)(O)O)NC(=O)[C@H](CC(=O)O)NC(=O)[C@H](CCC(=O)O)NC(=O)[C@H](CCC(=O)O)NC(=O)[C@H](CCC(=O)O)NC(=O)[C@H](CCC(=O)O)NC(=O)[C@@H](N)CCCCN)[C@@H](C)O)[C@@H](C)O)[C@@H](C)CC)C(=O)N[C@@H](CC(=O)O)C(=O)N[C@@H](Cc1c[nH]cn1)C(N)=O` [pS12] gave a Kd (LC3A; [1]) of 3 ± 0.4 µM, a Kd (LC3B; [2]) of 41.6 ± 4.6 µM and a Kd (GABARAPL2; [3]) of 12.8 ± 1.3 µM. For the same compound, the Kd (GABARAPL1; [4]) was 0.88 ± 0.08 µM, the Kd (LC3C; [5]) was 1.4 ± 0.1 µM and the Kd (GABARAP; [6]) was 1.5 ± 0.1 µM.

`CC[C@H](C)[C@H](NC(=O)[C@H](CC(=O)O)NC(=O)[C@H](CC(=O)O)NC(=O)[C@H](C)NC(=O)[C@H](CC(C)C)NC(=O)[C@H](COP(=O)(O)O)NC(=O)[C@@H](NC(=O)[C@H](CC(N)=O)NC(=O)[C@@H](NC(=O)[C@H](Cc1ccccc1)NC(=O)[C@@H](NC(=O)[C@H](CO)NC(=O)[C@H](CC(=O)O)NC(=O)[C@H](CCC(=O)O)NC(=O)[C@H](CCC(=O)O)NC(=O)[C@H](CCC(=O)O)NC(=O)[C@H](CCC(=O)O)NC(=O)[C@@H](N)CCCCN)[C@@H](C)O)[C@@H](C)O)[C@@H](C)CC)C(=O)N[C@@H](CC(=O)O)C(=O)N[C@@H](Cc1c[nH]cn1)C(N)=O` [pS18] was tested, and the Kd (LC3A; [1]) was 4.9 ± 0.4 µM, the Kd (LC3B; [2]) was 48.9 ± 8.6 µM and the Kd (GABARAPL2; [3]) was 26 ± 2.4 µM. The Kd (GABARAPL1; [4]) was 2.1 ± 0.1 µM, the Kd (LC3C; [5]) was 1.9 ± 0.2 µM and the Kd (GABARAP; [6]) was 3.9 ± 0.3 µM.

`CC[C@H](C)[C@H](NC(=O)[C@H](CC(=O)O)NC(=O)[C@H](CC(=O)O)NC(=O)[C@H](C)NC(=O)[C@H](CC(C)C)NC(=O)[C@H](CO)NC(=O)[C@@H](NC(=O)[C@H](CC(N)=O)NC(=O)[C@@H](NC(=O)[C@H](Cc1ccccc1)NC(=O)[C@@H](NC(=O)[C@H](CO)NC(=O)[C@H](CC(=O)O)NC(=O)[C@H](CCC(=O)O)NC(=O)[C@H](CCC(=O)O)NC(=O)[C@H](CCC(=O)O)NC(=O)[C@H](CCC(=O)O)NC(=O)[C@@H](N)CCCCN)[C@@H](C)OP(=O)(O)O)[C@@H](C)O)[C@@H](C)CC)C(=O)N[C@@H](CC(=O)O)C(=O)N[C@@H](Cc1c[nH]cn1)C(N)=O` [pT13] gave a Kd (LC3A) of 10.1 ± 1.5 µM, a Kd (LC3B) of 193 ± 29 µM and a Kd (GABARAPL2) of 33.8 ± 2.6 µM. For the same compound, the Kd (GABARAPL1) was 2 ± 0.2 µM, the Kd (LC3C) was 5 ± 0.5 µM and the Kd (GABARAP) was 3.1 ± 0.3 µM.

Work on `CC[C@H](C)[C@H](NC(=O)[C@H](CC(=O)O)NC(=O)[C@H](CC(=O)O)NC(=O)[C@H](C)NC(=O)[C@H](CC(C)C)NC(=O)[C@H](CO)NC(=O)[C@@H](NC(=O)[C@H](CC(N)=O)NC(=O)[C@@H](NC(=O)[C@H](Cc1ccccc1)NC(=O)[C@@H](NC(=O)[C@H](CO)NC(=O)[C@H](CC(=O)O)NC(=O)[C@H](CCC(=O)O)NC(=O)[C@H](CCC(=O)O)NC(=O)[C@H](CCC(=O)O)NC(=O)[C@H](CCC(=O)O)NC(=O)[C@@H](N)CCCCN)[C@@H](C)O)[C@@H](C)OP(=O)(O)O)[C@@H](C)CC)C(=O)N[C@@H](CC(=O)O)C(=O)N[C@@H](Cc1c[nH]cn1)C(N)=O` [pT15] yielded a Kd (LC3A) of 3.7 ± 0.5 µM, a Kd (LC3B) of 37.4 ± 4.5 µM and a Kd (GABARAPL2) of 44 ± 4.5 µM. It also gave a Kd (GABARAPL1) of 1.2 ± 0.1 µM, a Kd (LC3C) of 3.6 ± 0.4 µM and a Kd (GABARAP) of 3 ± 0.3 µM.
